Data: PMC11945486, “TAS1R2/TAS1R3 Single-Nucleotide Polymorphisms Affect Sweet Taste Receptor Activation by Sweeteners: The SWEET Project” (Nutrients, 2025)

Target: T1, human TAS1R2-C9S (subunit alone) (Homo sapiens, UniProt Q8TE23)
T1 construct: expressed in transfected cells; host or cells: HEK293T-Gα16gust44
T1 sequence (Q8TE23 20-839): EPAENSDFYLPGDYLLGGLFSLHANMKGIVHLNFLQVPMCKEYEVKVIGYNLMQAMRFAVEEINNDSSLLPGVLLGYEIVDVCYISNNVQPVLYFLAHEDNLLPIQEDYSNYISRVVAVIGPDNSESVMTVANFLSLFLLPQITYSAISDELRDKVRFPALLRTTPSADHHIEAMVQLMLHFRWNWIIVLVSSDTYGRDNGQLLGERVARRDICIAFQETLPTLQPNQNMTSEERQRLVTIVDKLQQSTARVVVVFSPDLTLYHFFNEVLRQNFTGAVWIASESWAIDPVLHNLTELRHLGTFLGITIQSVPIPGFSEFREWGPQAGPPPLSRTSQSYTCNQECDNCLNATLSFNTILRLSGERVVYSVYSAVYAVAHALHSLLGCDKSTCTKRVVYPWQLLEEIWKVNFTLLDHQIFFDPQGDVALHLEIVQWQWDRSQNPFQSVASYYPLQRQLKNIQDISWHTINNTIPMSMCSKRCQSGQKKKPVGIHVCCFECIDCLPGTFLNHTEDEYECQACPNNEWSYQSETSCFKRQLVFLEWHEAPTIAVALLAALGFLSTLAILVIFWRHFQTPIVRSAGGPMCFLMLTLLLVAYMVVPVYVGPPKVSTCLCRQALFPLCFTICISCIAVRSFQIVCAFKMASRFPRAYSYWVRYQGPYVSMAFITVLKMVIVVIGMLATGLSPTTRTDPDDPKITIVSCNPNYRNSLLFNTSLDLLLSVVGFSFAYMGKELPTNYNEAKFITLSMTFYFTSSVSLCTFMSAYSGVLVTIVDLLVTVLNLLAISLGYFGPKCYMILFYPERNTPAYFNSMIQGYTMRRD
Experiment: Calcium mobilisation assay, TAS1R2-C9S subunit alone
Type: cell-based
Description: The coding sequences for TAS1R2 and TAS1R3 were commercially synthesised, and the human codon was optimised for expression in human cells. The coding sequences of human TAS1R2 and TAS1R3 were subcloned and inserted into the mammalian expression vectors pcDNA6/myc-HisA and pcDNA4/myc-HisA (Invitrogen; Thermo Fisher Scientific; Illkirch, France) between the EcoRI and NotI restriction sites, generating the plasmids pcDNA6-TAS1R2 and pcDNA4-TAS1R3, respectively. To increase protein expression in mammalian cells, an upstream start codon was used, which was a sequence called MAX, corresponding to the QBI SP163 element also described in pcDNA4-HisMax (Invitrogen; Thermo Fisher Scientific; Illkirch, France). To measure the expression level of the receptor by immunohistochemistry, we used the FLAG sequence ([…]) in the C-terminal position, which encodes the FLAG tag epitope. […]
The HEK293T cells were kindly provided by Jay P. Slack (Givaudan Flavors Corporation; Cincinnati, OH, USA). […] The fluorescence intensity was measured for 90 s (excitation 488 nm, emission 510 nm) in an automated fluorometric FlexStation®3 Multi-Mode microplate reader (Molecular Devices; San Jose, CA, USA). […] The Ca^2+ changes were expressed as fractional changes in fluorescent light intensity: ΔF/F = (F − F0)/F0, where F was the fluorescent light intensity at each point, and F0 was the value of emitted fluorescent light prior to stimulus application. To calculate dose–response relationships, the changes in fluorescence upon stimulus application were averaged, mock-subtracted and baseline-corrected. […] The half-maximal effective concentrations (EC50 values) and maximal signal amplitudes were calculated using SigmaPlot software (version 15.0) (Systat Software; San Jose, CA, USA).
For in vitro calcium mobilisation assay performed on hTAS1R2-SNPs, hTAS1R3-SNPs and mTAS1R3-I60T, 6 to 7 concentrations were tested for each sweet compound, plus buffer alone. All concentration–receptor combinations were measured in duplicate, and each experiment was repeated at least 4 times (8 wells/concentration). […]

EC50: 190 ± 26.6 µM
R1 = Variant EC50/WT EC50: 2.1
Max ΔF/F0 (maximal signal amplitude): 0.44 ± 0.02
Structure (SMILES): C=C(C)[C@@H]1CC=C(/C=N/O)CC1 [Perillartine, perillartine]
